Several values for one entry are separate records, joined by “and”; a condition that tells them apart may be missing. Equal entries are not always repeated. Entries after “also recorded” stand apart in the source; their conditions may differ.
Columns and labels:
Assay type in all cases: in vivo
NOD mice [1] = assay: Effect of feeding porcine insulin on spontaneous diabetes in NOD mice
Source text: NOD (non-obese diabetic mice) were obtained from Taconic Laboratories (Germantown, Mass.) at 4 weeks of age. There were a total of 30 animals in each of the groups mentioned below at the beginning of the experiment. At 4 1/2 weeks of age, animals were orally administered Porcine insulin (Novo Laboratories, Danbury, Conn.). Each animal received two treatments orally twice a week until 9 weeks of age. The mice were fed either saline (control) or 10 micrograms, 100 micrograms, or 1 milligram of Porcine insulin. The animals were fed (gavaged) with an 18 gauge ball-point needle (Popper and Sons, Inc., New Hyde Park, N.Y.). Beginning at 10 weeks the animals were then fed once a week for a total of 33 weeks. Beginning at 12 weeks the urine was tested weekly for the presence of glucose using Glucosuria test tape (Eli Lilly, Indianapolis, Ind.). If an animal tested 3+or higher on the glucose urine test, a serum sample was taken and blood glucose measured using a glucose analyzer (Beckman). If the blood glucose was 220 or higher, the animals were classified as diabetic and then sacrificed.

NOD mice [2] = assay: Glucose post oral insulin in fasting 7 week NOD mice; settings: fasting 7 week old NOD mice
Experimental: In order to determine whether any endocrinologic (i.e. direct lowering of blood sugar) effects occurred following the feeding of insulin, 7 week old NOD mice (5 mice per group) were fed 1 mg of porcine insulin or 1 mg of myelin basic protein (obtained from Pel Freez, Rogers, Ariz.) as a control protein. Blood glucose was then measured over the next 24 hour period. As a positive control, a separate group of animals were injected subcutaneously with 20 micrograms of Porcine insulin. All animals were kept in the fasting state.

NOD mice [3] = assay: Insulitis in NOD mice fed insulin (preliminary experiments); settings: NOD mice fed 1 mg, vs PBS-fed NOD mice; data not shown
Source text: Therefore, oral administration of insulin to NOD mice appeared to be affecting the infiltration of immune system cells into the pancreas and thus halting disease progression by preserving beta cell function.

NOD mice [4] = assay: Treatment of initial stages of diabetes in NOD mice; settings: oral and aerosol administration, 0 to 1 mg, hyperglycemic NOD mice
Experimental: Insulin (0 to 1 mg as in Examples 1 and 2) will be administered to NOD mice which are suffering from hyperglycemia in an oral and aerosol form. The treatments will begin by weeks 12-20 of age, by which the serum glucose levels are at hyperglycemic concentrations in a certain percentage of animals prior to onset of diabetes.

[5] = subcutaneous injection of 20 micrograms

Molecule	development of diabetes (NOD mice [1]; NOD mice fed 1 mg insulin orally (gavage), vs saline control, diabetic = blood glucose 220 or higher)	development of diabetes (NOD mice [1]; NOD mice fed 10 micrograms insulin orally, dose response fashion)	blood sugar in individual animals which developed diabetes (NOD mice [1]; NOD mice fed 10 micrograms of insulin)	development of diabetes (NOD mice [1]; NOD mice fed 100 micrograms insulin orally, dose response fashion)	blood sugar in individual animals that became diabetic (NOD mice [1]; NOD mice fed 100 micrograms of insulin)	incidence of diabetes (NOD mice [1]; NOD mice, all doses of orally administered insulin, dose-dependent)	treated animals that failed to develop diabetes (NOD mice [1]; NOD mice, highest dose of oral insulin (1 mg))	blood glucose after feeding (NOD mice [2]; 1 mg oral)	blood glucose over the next 24 hours (NOD mice [2]; 1 mg oral)	endocrinologic (metabolic) effects (NOD mice [2]; 1 mg oral)	decrease in glucose level (NOD mice [2]; [5])	period over which the glucose decrease persisted (NOD mice [2]; [5])	inflammatory immune system cells surrounding the pancreas (insulitis) (NOD mice [3])	beta cell function (NOD mice [4])	serum glucose concentrations (NOD mice [4])
insulin: Porcine insulin (Novo Laboratories, Danbury, Conn.), given orally by gavage, subcutaneously as positive control, or planned as aerosol	none of the mice went on to develop diabetes; also recorded: no diabetes developed; also recorded: None of the animals developed diabetes	diabetes developed	330 mg/dL and 420 mg/dL and 315 mg/dL and 459 mg/dL and 520 mg/dL and 487 mg/dL	diabetes developed	500 mg/dL and 290 mg/dL and 600 mg/dL and 450 mg/dL	lower incidence of diabetes; also recorded: reduced the numbers of these mice which subsequently went on to develop diabetes	100%	no drop in the blood glucose	gradual decrease in blood glucose	no endocrinologic (metabolic) effects	approximately 80 mg %	4 h	fewer inflammatory immune system cells surrounding the pancreas	preservation of beta cell function	reduction in serum glucose concentrations to near normal levels
myelin basic protein: myelin basic protein (obtained from Pel Freez, Rogers, Ariz.) fed as a control protein (protein, UniProt P02686 1-304, looked up) Myelin basic protein: MGNHAGKRELNAEKASTNSETNRGESEKKRNLGELSRTTSEDNEVFGEADANQNNGTSSQDTAVTDSKRTADPKNAWQDAHPADPGSRPHLIRLFSRDAPGREDNTFKDRPSESDELQTIQEDSAATSESLDVMASQKRPSQRHGSKYLATASTMDHARHGFLPRHRDTGILDSIGRFFGGDRGAPKRGSGKDSHHPARTAHYGSLPQKSHGRTQDENPVVHFFKNIVTPRTPPPSQGKGRGLSLSRFSWGAEGQRPGFGYGGRASDYKSAHKGFKGVDAQGTLSKIFKLGGRDSRSGSPMARR	–	–	–	–	–	–	–	no drop in the blood glucose	gradual decrease in blood glucose	–	–	–	–	–	–

Source: patent US5858968A, “Method of treating or preventing type 1 diabetes by oral administration of insulin” (AutoImmune Inc., priority 1995, dated 1999)
